Results published in patent publication US5312816A, “Method of combatting osteoporosis in mammalian subjects, utilizing organic boron compounds” (priority 1993, dated 1994).

Tests used:
Cathepsin D [1] = target: T1, Cathepsin D (Mus musculus, UniProt P18242); assay: Mouse hepatic lysosomal cathepsin D activity; format: biochemical
T1 construct: azocasein assay pH 5.0
Excerpt: (§1) 1. Cf1 male mouse hepatic 10% homogenates in 0.25M sucrose+0.001MEDTA,pH 7.2.
(§2) Lysosomal Enzymes - free and total [triton X-100].
(§3) 2. Acid Cathepsin D -azocasein-pH 5.0, hydrolytic azo-peptide produce 366 nm.
Cathepsin azo casein activity -

Cathepsin = assay: Human leukocyte cathepsin; format: cell-based; conditions: Table XIX; read-out: Human Leukocyte IC50 (head gives no enzyme; beside Cathepsin D)
Excerpt: 5. Human peripheral leukocytes, RPMI-1788
as §3

5'-Lipoxygenase = target: T2, 5'-Lipoxygenase (Homo sapiens, UniProt P09917); assay: Human leukocyte 5'-lipoxygenase; format: cell-based
T2 construct: human leukocyte tissue culture cells; endogenous in cells; host or cells: Human peripheral leukocytes, RPMI-1788
T2 sequence (P09917 1-674): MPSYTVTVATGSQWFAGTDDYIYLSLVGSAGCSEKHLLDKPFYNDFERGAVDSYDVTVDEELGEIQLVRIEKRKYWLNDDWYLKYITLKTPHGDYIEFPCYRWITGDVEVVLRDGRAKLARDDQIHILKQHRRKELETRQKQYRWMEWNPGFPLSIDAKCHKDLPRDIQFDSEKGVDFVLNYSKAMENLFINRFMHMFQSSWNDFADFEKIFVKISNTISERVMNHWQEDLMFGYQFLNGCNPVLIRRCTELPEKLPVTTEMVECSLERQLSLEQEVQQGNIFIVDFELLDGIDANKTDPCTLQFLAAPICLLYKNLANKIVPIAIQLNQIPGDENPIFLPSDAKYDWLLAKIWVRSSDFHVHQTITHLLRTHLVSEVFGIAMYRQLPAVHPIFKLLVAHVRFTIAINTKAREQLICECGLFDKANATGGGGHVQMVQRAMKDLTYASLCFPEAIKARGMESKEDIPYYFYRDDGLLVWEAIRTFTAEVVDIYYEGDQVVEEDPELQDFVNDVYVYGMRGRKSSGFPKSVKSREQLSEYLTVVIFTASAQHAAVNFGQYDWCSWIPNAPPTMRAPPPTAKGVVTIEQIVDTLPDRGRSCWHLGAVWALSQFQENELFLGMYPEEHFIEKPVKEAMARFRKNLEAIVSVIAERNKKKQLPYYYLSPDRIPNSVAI

Cf1 male mice [2] = assay: Writhing reflex, 0.6% acetic acid; format: in vivo; conditions: Table XIV; unit inferred; unit assumed
Protocol: Writhing reflex- Cf1 -male mice- 0.6% acetic acid I.P. drugs administered @20 mg/kg/ I.P. 20 min. later - the # of stretches/10 min.
Hendershot, L.C., et al, J.

Acid phosphatase [3] = assay: Mouse macrophage acid phosphatase activity; format: cell-based; conditions: Table XVII; mouse macrophage, 60 min incubation; read-out: Acid Phosphatase IC50
[4] = target: Prostaglandin cyclooxygenase; assay: Mouse macrophage prostaglandin cyclooxygenase activity; format: cell-based; conditions: Table XVIII; mouse macrophage, 60 min incubation; read-out: Prostaglandin Cyclooxygenase IC50
Excerpt: (§4) 3. Mouse macrophages J774A.1 BALB/c
(§5) Prostaglandin synthetase purified beef seminal vesicle ^3 H arachidonic acid (86.2 Ci/mmol), tlc separation.

Aryl sulphatase [5] = assay: Mouse macrophage aryl sulphatase activity; format: cell-based; conditions: Table XVII; mouse macrophage, 60 min incubation; read-out: Aryl Sulphatase IC50
Commercial Collagenase = assay: Commercial collagenase (type not stated); format: biochemical; conditions: Table XVI; 60 min incubation
Excerpt: 3. Collagenase I, Clostridium histolyticum, bone, skin, tendon, blood vessel, dentine, GI. substrate: rat collagen, N-[propionate-2-3-^3 H] propionylated measured as dpm released.
4. Collagenase II, Clostridium histolyticum, cartilage collagen.

Aryl sulphatase [6] = assay: Mouse hepatic lysosomal aryl sulphatase activity; format: biochemical; conditions: Table XV, 60 min incubation
Excerpt: as §1, §2
(§6) 3. Aryl sulphatase- p-nitrocatechol sulfate, pH
(§7) 5. 8 p-nitro-catechol product 510 nm.

Acid phosphatase [7] = assay: Mouse hepatic lysosomal acid phosphatase activity; format: biochemical; conditions: mouse hepatic, 60 min incubation
Excerpt: as §1, §2
(§8) 1. Acid phosphatase -beta glycerol-3-phosphate, pH 5.0, released IP 720 nm.
Acid phosphatase activity -

Trypsin [8] = assay: Mouse hepatic trypsin activity; format: biochemical; conditions: Table XVI; 60 min incubation; read-out: Mouse Hepatic Trypsin IC50
Excerpt: as §1
1. Trypsin- N-benzoyl-L-arginine ethyl ester pH 8.0, hydrolytic product 253 nm.

Cathepsin D [9] = target: T1, Cathepsin D; assay: Mouse macrophage cathepsin D activity; format: cell-based; conditions: Table XVII; mouse macrophage, 60 min incubation; read-out: Cathepsin D pH 5.0 IC50
Excerpt: as §4, §3

Trypsin [10] = assay: Mouse macrophage trypsin (BAEE) activity; format: cell-based; conditions: Table XVIII; mouse macrophage, 60 min incubation; read-out: Trypsin BAEE IC50
Pg. cyclooxygenase = target: T3, Pg. cyclooxygenase (Sus scrofa, UniProt A0A287ANF9); assay: Porcine seminal vesicles Pg. cyclooxygenase; format: biochemical; conditions: Table XVI; 60 min incubation
T3 construct: Porcine Seminal; from tissue; the methods section prints beef seminal vesicle

Cf1 male mice [11] = assay: Hot plate tail flick test; format: in vivo; conditions: Table XIV; unit not given
Elastase = assay: Mouse macrophage elastase activity; format: cell-based; conditions: Table XVIII; mouse macrophage, 60 min incubation; read-out: Elastase IC50
Excerpt: Elastase- N-succinyl-L-alanyl-L-alanine-p-nitroanilide, pH 8.0, p-nitro anilide 410 nm.

Cf1 male mice [12] = assay: Anti-inflammatory screen, Winter's test, 2% carrageenan hind foot; format: in vivo; conditions: Table XIV; unit inferred; unit assumed
Protocol: Anti-inflammatory Screen- Cf1 - male mice-Winter's Test 2% carrageenan S.C. plantar surface of hind foot, drugs administered @8 or 10 mg/kg I.P. 2X
Winter, C.A., et al, Proc. Soc.

Hydroxyproline = assay: Serum and urine hydroxyproline levels in vivo; conditions: Cf1 male mice, 8 mg/kg/day I.P. 14 days, N=6
Calcium = assay: Serum and urine calcium levels in vivo; conditions: Cf1 male mice, 8 mg/kg/day I.P. 14 days, N=6
Aryl sulphatase [13] = assay: Human osteoporosis fibroblasts aryl sulphatase activity; format: cell-based; conditions: read-out: Aryl Sulphatase IC50; Table X; human osteoporosis fibroblasts
Excerpt: as §6, §7

Cathepsin D [14] = target: T4, Cathepsin D (Homo sapiens, UniProt P07339); assay: Human osteoporosis fibroblasts cathepsin D (azo-casein) activity; format: cell-based; conditions: Table X; human osteoporosis fibroblasts, DMEM +10% FCS + P/S; read-out: Cathepsin D IC50
T4 construct: azocasein assay pH 5.0
Excerpt: Osteoporosis Human Fibroblast-CRL-1140, Be SA1

Acid phosphatase [15] = assay: Human osteoporosis fibroblasts acid phosphatase activity; format: cell-based; conditions: read-out: Acid Phosphatase IC50; Table X; human osteoporosis fibroblasts
Excerpt: as §8

Cf1 male mice [16] = assay: Writhing reflex, 0.6% acetic acid; format: in vivo; conditions: Mus musculus, ip; Table IV; 8 mg/kg I.P.
Prostaglandin synthetase = target: T5, Prostaglandin synthetase (Bos taurus, UniProt O62664); assay: Prostaglandin synthetase (cyclooxygenase), purified beef seminal vesicle; format: biochemical; conditions: Table IX; commercial enzyme preparation; read-out: Beef Prostaglandin Cyclooxygenase IC50
T5 construct: Prostaglandin synthetase purified beef seminal vesicle; from tissue
T5 sequence (O62664 25-600): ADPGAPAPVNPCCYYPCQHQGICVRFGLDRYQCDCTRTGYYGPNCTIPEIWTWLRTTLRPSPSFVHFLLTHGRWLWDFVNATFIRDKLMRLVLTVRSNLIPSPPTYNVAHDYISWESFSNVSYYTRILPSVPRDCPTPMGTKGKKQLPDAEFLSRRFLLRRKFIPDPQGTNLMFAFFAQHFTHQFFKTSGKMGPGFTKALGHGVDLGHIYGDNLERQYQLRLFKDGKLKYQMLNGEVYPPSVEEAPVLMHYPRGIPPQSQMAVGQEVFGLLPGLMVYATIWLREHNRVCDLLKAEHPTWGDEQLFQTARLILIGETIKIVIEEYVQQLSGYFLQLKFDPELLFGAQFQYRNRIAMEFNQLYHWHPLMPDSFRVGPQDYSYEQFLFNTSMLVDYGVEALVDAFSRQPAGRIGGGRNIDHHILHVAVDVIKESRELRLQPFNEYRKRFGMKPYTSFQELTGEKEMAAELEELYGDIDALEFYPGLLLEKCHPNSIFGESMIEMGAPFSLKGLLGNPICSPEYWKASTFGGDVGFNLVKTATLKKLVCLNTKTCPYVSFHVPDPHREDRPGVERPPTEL
Excerpt: as §5

Phosphorus = assay: Serum and urine inorganic phosphorus levels in vivo; conditions: Cf1 male mice, 8 mg/kg/day I.P. 14 days, N=6
[17] = Table XV, mouse hepatic, 60 min incubation, read-out: Cathepsin D IC50

T1 sequence (P18242 65-410): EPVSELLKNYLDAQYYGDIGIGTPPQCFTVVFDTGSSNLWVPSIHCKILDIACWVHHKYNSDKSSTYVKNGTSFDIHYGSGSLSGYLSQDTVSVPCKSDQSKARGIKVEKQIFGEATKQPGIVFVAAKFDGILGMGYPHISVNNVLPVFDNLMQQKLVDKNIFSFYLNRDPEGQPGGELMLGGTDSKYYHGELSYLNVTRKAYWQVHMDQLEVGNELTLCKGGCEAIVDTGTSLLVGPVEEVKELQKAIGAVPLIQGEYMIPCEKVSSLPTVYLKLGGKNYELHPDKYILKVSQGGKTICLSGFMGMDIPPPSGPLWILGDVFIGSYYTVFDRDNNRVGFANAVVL
T3 sequence (A0A287ANF9 25-600): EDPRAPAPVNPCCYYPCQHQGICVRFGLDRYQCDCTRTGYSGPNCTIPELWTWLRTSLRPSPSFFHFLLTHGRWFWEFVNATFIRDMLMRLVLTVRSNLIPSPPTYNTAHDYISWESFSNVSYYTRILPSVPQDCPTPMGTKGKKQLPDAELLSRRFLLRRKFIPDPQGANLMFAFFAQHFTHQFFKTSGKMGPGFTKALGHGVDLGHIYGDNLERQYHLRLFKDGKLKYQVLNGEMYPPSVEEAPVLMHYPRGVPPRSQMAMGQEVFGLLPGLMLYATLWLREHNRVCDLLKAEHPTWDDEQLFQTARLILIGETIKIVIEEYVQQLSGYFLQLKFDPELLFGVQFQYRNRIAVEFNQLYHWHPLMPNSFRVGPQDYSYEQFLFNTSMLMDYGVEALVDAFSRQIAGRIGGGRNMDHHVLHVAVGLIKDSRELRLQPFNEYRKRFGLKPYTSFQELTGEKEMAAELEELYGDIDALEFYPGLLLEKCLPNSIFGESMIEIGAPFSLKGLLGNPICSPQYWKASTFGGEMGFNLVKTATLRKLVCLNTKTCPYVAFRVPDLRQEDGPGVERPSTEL
T4 sequence (P07339 65-412): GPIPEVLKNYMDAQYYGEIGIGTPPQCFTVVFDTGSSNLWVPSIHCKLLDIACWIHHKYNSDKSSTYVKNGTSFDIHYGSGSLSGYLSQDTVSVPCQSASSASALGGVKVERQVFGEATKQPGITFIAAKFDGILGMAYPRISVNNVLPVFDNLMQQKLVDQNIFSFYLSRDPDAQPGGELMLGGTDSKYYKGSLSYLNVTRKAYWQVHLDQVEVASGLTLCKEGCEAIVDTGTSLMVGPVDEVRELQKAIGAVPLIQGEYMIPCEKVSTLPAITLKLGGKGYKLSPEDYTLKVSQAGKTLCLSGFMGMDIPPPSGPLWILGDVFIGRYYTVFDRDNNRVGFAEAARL

SMILES | Writhing Reflex Mice (Cf1 male mice [2]) | IC50 (Acid phosphatase [3]) | IC50 [4] | IC50 (Aryl sulphatase [5]) | IC50 (Commercial Collagenase) | IC50 (Cathepsin D [1]; [17]) | IC50 (Aryl sulphatase [6]) | IC50 (Acid phosphatase [7]; Table XV) | IC50 (Trypsin [8]) | IC50 (Cathepsin D [9]) | IC50 (Trypsin [10]) | IC50 (Pg. cyclooxygenase) | Tail Flick Mice (Cf1 male mice [11]) | IC50 (Elastase) | Anti-Inflammation Cf1 Mice (Cf1 male mice [12]) | Hydroxyproline serum (Hydroxyproline) | Hydroxyproline urine (Hydroxyproline) | Calcium urine (Calcium) | other results
CC(C)[Si](OC[C@@H]1CC[C@H](n2ccc(N)[n+]([BH2-]C#N)c2=O)O1)(C(C)C)C(C)C [Compound 42] | – | – | – | – | – | – | – | – | – | – | – | – | – | – | – | – | – | – | IC50 (Cathepsin D [1]; read-out: Mouse Hepatic Cathepsin D IC50, Table XIX): 30.6 µM; IC50 (Cathepsin): 7.31 µM; IC50 (5'-Lipoxygenase): 6.64 µM
CC#N.CO.CO.CO.C[N+](C)(C)[BH2-]C(=O)[O-].C[N+](C)(C)[BH2-]C(=O)[O-].C[N+](C)(C)[BH2-]C(=O)[O-].C[N+](C)(C)[BH2-]C(=O)[O-].C[N+](C)(C)[BH2-]C(=O)[O-].C[N+](C)(C)[BH2-]C(=O)[O-].O=[N+]([O-])[O-].[Fe+3].[Fe+3].[Fe+3].[O-2] [Compound 24] | 42.9% | 2.09 µM | 2.34 µM | 1.95 µM | 478 µM | 6.84 µM | 2.57 µM | 5.6 µM | 9.93 µM | 2.85 µM | 2.37 µM | 2.9 µM | 338 | 3.92 µM | 81.6% | – | – | – | –
C[N+](C)(C)[BH2-]C(=O)[O-].C[N+](C)(C)[BH2-]C(=O)[O-].C[N+](C)(C)[BH2-]C(=O)[O-].C[N+](C)(C)[BH2-]C(=O)[O-].C[N+](C)(C)[BH2-]C(=O)[O-].C[N+](C)(C)[BH2-]C(=O)[O-].O.O.O.[Cl-].[Fe+3].[Fe+3].[Fe+3].[O-2] [Compound 25] | 36.4% | 2.44 µM | 2.08 µM | 2.75 µM | 475 µM | 8.17 µM | 2.33 µM | 4.14 µM | 9.91 µM | 3.39 µM | 1.81 µM | 4.17 µM | 599 | 4.11 µM | 74.2% | – | – | – | –
O=C(O)[BH2-][P+](c1ccccc1)(c1ccccc1)c1ccccc1 [Compound 8, Triphenylphosphine-carboxyborane] | – | – | – | – | – | – | – | – | – | – | – | – | – | – | – | 60.5 % Control | 30.0 % Control | 83.5 % Control | –
O=C(O)[BH2-][n+]1ccccc1 [Compound 15, Pyridine-carboxyborane] | – | – | – | – | – | – | – | – | – | – | – | – | – | – | – | – | – | – | IC50 (Aryl sulphatase [13]): 8.16 µM; IC50 (Cathepsin D [1]; Table V, mouse hepatic, 60 min incubation, read-out: Cathepsin D IC50): 4.8 µM; IC50 (Acid phosphatase [7]; Table V): 10 µM; IC50 (Cathepsin D [14]): 8.16 µM; IC50 (Acid phosphatase [15]): 18.3 µM; response vs control in vivo at 8 mg/kg (Cf1 male mice [16]): 50%; IC50 (Prostaglandin synthetase): 7.6 µM
C[NH2+][BH2-]C(=O)OC [CH3 NH2 BH2 COOCH3, Methylamine-carbomethoxyborane] | – | – | – | – | – | – | – | – | – | – | – | – | – | – | – | 68.0 % Control | 144.1 % Control | 176.9 % Control | Phosphorus serum (Phosphorus): 65.3 % Control; Phosphorus urine (Phosphorus): 136.8 % Control; Calcium serum (Calcium): 105.1 % Control
